Results published in patent publication US11578055B2, “Triazacyclododecansulfonamide (“TCD”)-based protein secretion inhibitors” (KEZAR LIFE SCIENCES, priority 2018, dated 2023).

Tests used:
[1] = system: PD1 signal sequence plus 10 amino acids fused to Gaussia Luciferase (PD1-ss+10aa/Gaussia Luciferase); experiment: Dox Induced PD1-ss-Gluc Assay; format: cell-based; details: 24 hr, Dox inducible, 293FRT/TO cells; read-out: 24 hr Dox Inducible PD1ssGluc 293FRT/TO: Mean IC50
Method in brief: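 Stable Flp-In 293 T-REx line expressing the fusion under tetracycline-inducible control, plated the day before assay. Compound dilutions added with doxycycline and incubated at 37 °C, 5% CO2; unspecified stereocentres mean data refer to stereoisomer mixtures.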

[2] = system: full length TNFα (amino acids 1-233) fused to Gaussia Luciferase; experiment: Dox Induced TNFα-FL-Gluc Assay; format: cell-based; details: 24 hr, Dox inducible, 293FRT/TO cells; read-out: 24 hr Dox Inducible TNFaFLGluc 293FRT/TO: Mean IC50
Method in brief: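 Stable Flp-In 293 T-REx line expressing doxycycline-inducible full-length TNFα fused to Gaussia luciferase; cells plated the day before, then treated with compound dilutions in doxycycline-containing medium at 37° C, 5% CO2. Unspecified stereocentres mean stereoisomer mixtures were tested.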

[3] = system: full length IL-2 (amino acids 1-153) fused to Gaussia Luciferase; experiment: Dox Induced IL2-FL-Gluc Assay; format: cell-based; details: 24 hr, Dox inducible, 293FRT/TO cells; read-out: 24 hr Dox Inducible IL2FLGluc 293FRT/TO: Mean IC50
Method in brief: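 Flp-In 293 T-REx stable line expressing full-length IL-2 (aa 1-153) with C-terminal Gaussia luciferase fusion under doxycycline-inducible control. Cells plated the day before; compound dilutions added in DMSO/media containing doxycycline, incubated at 37° C, 5% CO2.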

[4] = system: multiple myeloma cell line NCl-H929; experiment: H929 Cell Viability Assay; format: cell-based, human; details: Homo sapiens, NCI-H929, 48 h, H929, Celltiter-Glo
Method in brief: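 NCI-H929 myeloma cells in RPMI 1640 with 10% FBS were treated with compound dilutions for 48 h at 37 °C, and viability was then read by CellTiter-Glo luminescence. Compounds drawn without stereochemistry were tested as stereoisomer mixtures.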

[5] = system: multiple myeloma cell line U266B1; experiment: U266 Cell Viability Assay; format: cell-based, human; details: Homo sapiens, U-266; 48 hr, U266, Celltiter-Glo
Method in brief: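 U266B1 myeloma cells in RPMI 1640 with 10% FBS were treated with compound dilutions for 48 h at 37° C, 5% CO2. Viability was read as CellTiter-Glo luminescence. Data for structures drawn without stereochemistry refer to stereoisomer mixtures.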

[6] = In Vitro Microsome Stability Assay (human); format: in vitro ADME; details: human liver microsomes, 30 min w/ NADPH
Method in brief: (§1)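 Test article, added from a 0.25 mM DMSO stock, was incubated with liver microsomes (20 mg/mL stock) in 0.1 M potassium phosphate at 37° C, with the reaction started by NADPH. Samples were quenched with acetonitrile containing internal standard at 0 and 30 min and analysed by LC-MS/MS. Values are % remaining at 30 min versus 0 min, using IS-normalised AUC ratios.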

[7] = In Vitro Microsome Stability Assay (mouse); format: in vitro ADME; details: mouse liver microsomes, 30 min w/ NADPH
Method in brief: as §1

[8] = In Vitro Microsome Stability Assay (rat); format: in vitro ADME; details: rat liver microsomes, 30 min w/ NADPH
Method in brief: as §1

[9] = In Vitro Microsome Stability Assay (monkey); format: in vitro ADME; details: monkey liver microsomes, 30 min w/ NADPH
Method in brief: as §1

Row | Structure (SMILES) | IC50 [1] [nM] | IC50 [2] [nM] | IC50 [3] [nM] | EC50 [4] [nM] | EC50 [5] [nM] | Liver Microsome Stability-% Left after 30 min w/ NADPH (%) Human [6] [%] | Liver Microsome Stability-% Left after 30 min w/ NADPH (%) Mouse [7] [%] | Liver Microsome Stability-% Left after 30 min w/ NADPH (%) Rat [8] [%] | Liver Microsome Stability-% Left after 30 min w/ NADPH (%) Monkey [9] [%]
1 | C[C@H]1CN(S(=O)(=O)c2ccc(N(C)C)cc2)CCCN(CC2=CCCCC2)CCCN(S(=O)(=O)N2CCc3cc(Cl)ccc3C2)C1 [A135, 4-{[(3S)-5-[(6-chloro-1,2,3,4-tetrahydroisoquinolin-2-yl)sulfonyl]-9-[(cyclohex-1-en-1-yl)methyl]-3-methyl-1,5,9-triazacyclododecan-1-yl]sulfonyl}-N,N-dimethylaniline] | 21.6 | 625 | 48.6 | 1240 | > 25000 | 9.36 | 26.1 | 56.3 | 39.2
2 | CCc1ccc2c(c1)CCN(S(=O)(=O)N1CCCN(CC3CCCCC3)CCCN(S(=O)(=O)c3ccc(N(C)C)cc3)C[C@H](C)C1)C2 [A136, 4-{[(3S)-9-(cyclohexylmethyl)-5-[(6-ethyl-1,2,3,4-tetrahydroisoquinolin-2-yl)sulfonyl]-3-methyl-1,5,9-triazacyclododecan-1-yl]sulfonyl}-N,N-dimethylaniline] | 26.5 | 544 | 101 | 1730 | > 25000 | 65.3 | 14.3 | 26.6 | 23.2
3 | COc1cccc2c1CCN(S(=O)(=O)N1CCCN(CC3CCCCC3)CCCN(S(=O)(=O)c3ccc(N(C)C)cc3)C[C@H](C)C1)C2 [A138, 4-{[(3S)-9-(cyclohexylmethyl)-5-[(5-methoxy-1,2,3,4-tetrahydroisoquinolin-2-yl)sulfonyl]-3-methyl-1,5,9-triazacyclododecan-1-yl]sulfonyl}-N,N-dimethylaniline] | 73.9 | 947 | 156 | 2400 | > 25000 | 8.84 | 13.2 | 17.1 | 12.5
4 | COCCN1CCCN(S(=O)(=O)c2ccc(N(C)C)cc2)C[C@H](C)CN(S(=O)(=O)N2CCc3cc(Cl)ccc3C2)CCC1 [A140, 4-{[(3S)-5-[(6-chloro-1,2,3,4-tetrahydroisoquinolin-2-yl)sulfonyl]-9-(2-methoxyethyl)-3-methyl-1,5,9-triazacyclododecan-1-yl]sulfonyl}-N,N-dimethylaniline] | 492 | 3010 | 808 | > 25000 | > 25000 | 0.41 | 3.68 | 0.56 | 1.56
5 | CC(C)N1CCCN(S(=O)(=O)c2ccc(N(C)C)cc2)C[C@H](C)CN(S(=O)(=O)N2CCc3cc(Cl)ccc3C2)CCC1 [A141, 4-{[(3S)-5-[(6-chloro-1,2,3,4-tetrahydroisoquinolin-2-yl)sulfonyl]-3-methyl-9-(propan-2-yl)-1,5,9-triazacyclododecan-1-yl]sulfonyl}-N,N-dimethylaniline] | 431 | 4240 | 863 | 9110 | > 25000 | 0.26 | 0.48 | 1.14 | 0.66
6 | C[C@H]1CN(S(=O)(=O)c2ccc(N(C)C)cc2)CCCN(CC2=CCCC2)CCCN(S(=O)(=O)N2CCc3cc(Cl)ccc3C2)C1 [A142] | 38.2 | 741 | 67 | 1450 | > 25000 | 11.8 | 16 | 22.6 | 3.89
7 | C[C@H]1CCN(S(=O)(=O)c2ccc(N(C)C)cc2)CCCN(CC2CCCCC2)CCCN1S(=O)(=O)N1CCc2cc(Cl)ccc2C1 [A147, 4-{[(4 S)-5-[(6-chloro-1,2,3,4-tetrahydroisoquinolin-2-yl)sulfonyl]-9-(cyclohexylmethyl)-4-methyl-1,5,9-triazacyclododecan-1-yl]sulfonyl}-N,N-dimethylaniline] | 4120 | > 25000 | > 25000 | > 25000 | > 25000 | 2.76 | 0.74 | 1.16 | 0.99
8 | C[C@@H]1CCN(S(=O)(=O)c2ccc(N(C)C)cc2)CCCN(CC2CCCCC2)CCCN1S(=O)(=O)N1CCc2cc(Cl)ccc2C1 [A148, 4-{[(4 R)-5-[(6-chloro-1,2,3,4-tetrahydroisoquinolin-2-yl)sulfonyl]-9-(cyclohexylmethyl)-4-methyl-1,5,9-triazacyclododecan-1-yl]sulfonyl}-N,N-dimethylaniline] | 926 | > 25000 | 1120 | > 25000 | > 25000 | 0.52 | 1.59 | 1.29 | 0.67
9 | C[C@@H]1CCN(S(=O)(=O)N2CCc3cc(Cl)ccc3C2)CCCN(CC2CCCCC2)CCCN1S(=O)(=O)c1ccc(N(C)C)cc1 [A149, 4-{[(2 R)-5-[(6-chloro-1,2,3,4-tetrahydroisoquinolin-2-yl)sulfonyl]-9-(cyclohexylmethyl)-2-methyl-1,5,9-triazacyclododecan-1-yl]sulfonyl}-N,N-dimethylaniline] | > 25000 | > 25000 | > 25000 | > 25000 | > 25000 | 0.44 | 0.83 | 0.47 | 0.96
10 | C[C@H]1CCN(S(=O)(=O)N2CCc3cc(Cl)ccc3C2)CCCN(CC2CCCCC2)CCCN1S(=O)(=O)c1ccc(N(C)C)cc1 [A150, 4-{[(2 S)-5-[(6-chloro-1,2,3,4-tetrahydroisoquinolin-2-yl)sulfonyl]-9-(cyclohexylmethyl)-2-methyl-1,5,9-triazacyclododecan-1-yl]sulfonyl}-N,N-dimethylaniline] | 30.3 | 468 | 41.3 | 2000 | > 25000 | 4.6 | 1.38 | 2.02 | 2.2
11 | CC(C)CN1CCCN(S(=O)(=O)c2ccc(N(C)C)cc2)C[C@H](C)CN(S(=O)(=O)N2CCc3cc(Cl)ccc3C2)CCC1 [A152] | 81.5 | 1030 | 174 | 2170 | > 25000 | 3.69 | 5.06 | 3.6 | 3.22
12 | C[C@H]1CN(S(=O)(=O)c2ccc(N(C)C)cc2)CCCN(CC2CCCCC2)CCCN(S(=O)(=O)N2CCN(C(=O)OC(C)(C)C)CC2)C1 [A153, tert-butyl 4-{[(3S)-9-(cyclohexylmethyl)-5-[4-(dimethylamino)benzenesulfonyl]-3-methyl-1,5,9-triazacyclododecan-1-yl]sulfonyl}piperazine-1-carboxylate] | 1290 | > 25000 | 1260 | > 25000 | > 25000 | 2.57 | 0.87 | 6.23 | 1.26
